What all share (assay type): in vivo
In assay [1] the test system is Ipomoea hederaceae (IPOHE). Briefly: Post-emergence biological efficacy, glasshouse, 500 or 1000 g/ha, evaluated after 13 days (100=total damage to plant; 0=no damage to plant). The note with it: Ipomoea, 312 h, read-out: Percentage damage caused to weed species, post-emergence, IPOHE; for pest or weed control at 1000 g/ha: rate 1,000 g/ha. In outline:
(§1)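 Weed seeds were sown in standard soil in pots and the plants treated post-emergence. Afterwards they were grown on in a controlled glasshouse at 24/16° C. day/night with 14 hours light and 65% humidity, and watered twice daily.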

For assay [2], the system named is Solanum nigrum (SOLNI). The description is as above. The note with it: Solanum nigrum, 312 h, read-out: Percentage damage caused to weed species, post-emergence, SOLNI; for pest or weed control at 1000 g/ha: rate 1,000 g/ha. In outline: as §1
For assay [3], the system named is Setaria faberi (SETFA). The assay is described as above. The note with it: Setaria faberi, 312 h, read-out: Percentage damage caused to weed species, post-emergence, SETFA; for pest or weed control at 1000 g/ha: rate 1,000 g/ha. Put shortly: as §1
Assay [4] concerns Echinochloa crusgaffi (ECHCG). Described as above. Particulars: Echinochloa, 312 h, read-out: Percentage damage caused to weed species, post-emergence, ECHCG; for pest or weed control at 1000 g/ha: rate 1,000 g/ha. In outline: as §1
The test system of assay [5] is Alopecurus myosuroides (ALOMY). The description is as above. The note with it: Alopecurus myosuroides, 312 h, read-out: Percentage damage caused to weed species, post-emergence, ALOMY; for pest or weed control at 1000 g/ha: rate 1,000 g/ha. In outline: as §1
The test system of assay [6] is Amaranthus retroflexus (AMARE). Described as above. Particulars: Amaranthus retroflexus, 312 h, read-out: Percentage damage caused to weed species, post-emergence, AMARE; for pest or weed control at 1000 g/ha: rate 1,000 g/ha. In outline:
as §1

Assay [7] relates to Echinochloa crus-galli (ECHCG). Briefly: Pre-emergence biological efficacy, glasshouse, 1000 g/ha, evaluated after 13 days (100=total damage to plant; 0=no damage to plant). Particulars: Echinochloa crus-galli, 312 h, read-out: Percentage damage caused to weed species, pre-emergence, ECHCG; for pest or weed control at 1000 g/ha: rate 1,000 g/ha. In outline:
(§2)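 Seeds were sown in standard soil in pots, then grown in a controlled glasshouse at 24/16° C. day/night, 14 hours light and 65% humidity, with watering twice daily.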

Assay [8] relates to Ipomoea hederaceae (IPOHE). The assay is described as above. The note with it: Ipomoea, 312 h, read-out: Percentage damage caused to weed species, pre-emergence, IPOHE; for pest or weed control at 1000 g/ha: rate 1,000 g/ha. Put shortly:
as §2

The subject of assay [9] is Solanum nigrum (SOLNI). The assay is described as above. The note with it: Solanum nigrum, 312 h, read-out: Percentage damage caused to weed species, pre-emergence, SOLNI; for pest or weed control at 1000 g/ha: rate 1,000 g/ha. In outline:
as §2

The test system of assay [10] is Setaria faberi (SETFA). Described as above. Particulars: Setaria faberi, 312 h, read-out: Percentage damage caused to weed species, pre-emergence, SETFA; for pest or weed control at 1000 g/ha: rate 1,000 g/ha. In outline:
as §2

Assay [11] has as its system Alopecurus myosuroides (ALOMY). Described as above. The note with it: Alopecurus myosuroides, 312 h, read-out: Percentage damage caused to weed species, pre-emergence, ALOMY; for pest or weed control at 1000 g/ha: rate 1,000 g/ha. Put shortly: as §2
In assay [12] the test system is Amaranthus retroflexus (AMARE). The description is as above. Particulars: Amaranthus retroflexus, 312 h, read-out: Percentage damage caused to weed species, pre-emergence, AMARE; for pest or weed control at 1000 g/ha: rate 1,000 g/ha. In outline:
as §2

On to `COC(=O)c1nc(-c2ccc(Cl)c(OC)c2F)nc2c1cc(C)n2CC1CC1` [Compound 5-66, 2-(4-Chloro-2-fluoro-3-methoxyphenyl)-7-cyclopropylmethyl-4-methoxycarbonyl-6-methyl-7H-pyrrolo[2,3-d]pyrimidine], for which the pest or weed control at 1000 g/ha in assay [1] was determined as 0%; in assay [2], 20%; in assay [3], 20%; in assay [4], 10%; in [5] it was 10%; in assay [6], 0%. Also, the pest or weed control at 1000 g/ha in assay [7], in [8], in [9], in assay [10], in assay [11] and in assay [12] was 0% in each case.
Consider `O=C(O)c1nc(-c2ccc(Cl)c(F)c2)nc2c1ccn2Cc1ccccc1` [Compound 6-17, 4-Carboxy-2-(4-chloro-3-fluorophenyl)-7-phenylmethyl-7H-pyrrolo[2,3-d]pyrimidine], for which the pest or weed control at 1000 g/ha amounted to 0% in [1]; 40% in assay [2]; 0% in assay [3]; 0% in [4]; 0% in assay [5]; 20% in [6]. Further, the pest or weed control at 1000 g/ha in assay [7], in [8], in assay [9], in assay [10], in assay [11] and in assay [12] was 0% throughout.
As for `COC(=O)c1nc(-c2ccc(Cl)c(F)c2)nc2c1ccn2Cc1ccccc1` [Compound 6-18, 2-(4-Chloro-3-fluorophenyl)-4-methoxycarbonyl-7-phenylmethyl-7H-pyrrolo[2,3-d]pyrimidine], the pest or weed control at 1000 g/ha in assay [1] is 20%; in assay [2] it was 40%; in assay [3], 0%; in assay [4], 0%; in assay [5], 0%; in assay [6], 0%. Further, the pest or weed control at 1000 g/ha in assay [7], in assay [8], in assay [9], in [10], in assay [11] and in assay [12] was 0% each time.
As for `Cc1cc2c(C(=O)O)nc(-c3ccc(Cl)c(F)c3)nc2n1Cc1ccccc1` [Compound 6-21, 4-Carboxy-2-(4-chloro-3-fluorophenyl)-6-methyl-7-phenylmethyl-7H-pyrrolo[2,3-d]pyrimidine], the pest or weed control at 250 g/ha turned out to be 10% in [1] (rate 250 g/ha); 10% in [2] (rate 250 g/ha); 0% in assay [3] (rate 250 g/ha); 0% in assay [4] (rate 250 g/ha); 10% in assay [5] (rate 250 g/ha); 0% in assay [6] (rate 250 g/ha). Besides, the pest or weed control at 250 g/ha in [7] (rate 250 g/ha), in assay [8] (rate 250 g/ha), in assay [9] (rate 250 g/ha), in assay [10] (rate 250 g/ha), in assay [11] (rate 250 g/ha) and in [12] (rate 250 g/ha) was 0% each time.
On to `COc1c(Cl)ccc(-c2nc(C(=O)O)c3c(C)cn(Cc4ccccc4)c3n2)c1F` [Compound 6-63, 7-Benzyl-4-carboxy-2-(4-chloro-2-fluoro-3-methoxyphenyl)-5-methyl-7H-pyrrolo[2,3-d]pyrimidine], for which the pest or weed control at 1000 g/ha in assay [1] stood at 60%; in assay [2] it was 70%; in [3], 50%; in assay [4] it was 40%; in assay [5], 10%; in [6] it was 80%. Further, the pest or weed control at 1000 g/ha in assay [7], in assay [8], in assay [9], in [10], in assay [11] and in assay [12] was 0% in each case.
With `COC(=O)c1nc(-c2ccc(Cl)c(OC)c2F)nc2c1c(C)cn2Cc1ccccc1` [Compound 6-64, 2-(4-Chloro-2-fluoro-3-methoxyphenyl)-4-methoxycarbonyl-5-methyl-7-phenylmethyl-7H-pyrrolo[2,3-d]pyrimidine], the pest or weed control at 1000 g/ha in assay [1] came to 50%; in assay [2] it was 70%; in assay [3], 0%; in assay [4], 0%; in assay [5] it was 0%; in [6] it was 20%. For the same compound, the pest or weed control at 1000 g/ha in [7] turned out to be 0%; in assay [8], 30%; in assay [9] it was 50%; in assay [10] it was 0%; in assay [11], 0%; in assay [12], 50%.
In the case of `COc1c(Cl)ccc(-c2nc(C(=O)O)c3cc(C)n(Cc4ccccc4)c3n2)c1F` [Compound 6-65, 4-Carboxy-2-(4-chloro-2-fluoro-3-methoxyphenyl)-6-methyl-7-phenylmethyl-7H-pyrrolo[2,3-d]pyrimidine], the pest or weed control at 1000 g/ha came to 40% in [1]; 80% in [2]; 0% in assay [3]; 0% in assay [4]; 0% in [5]; 20% in assay [6]. The pest or weed control at 1000 g/ha in [7], in assay [8], in assay [9], in [10], in [11] and in assay [12] was 0% in each case.
Regarding `COC(=O)c1nc(-c2ccc(Cl)c(OC)c2F)nc2c1cc(C)n2Cc1ccccc1` [Compound 6-66, 2-(4-Chloro-2-fluoro-3-methoxyphenyl)-4-methoxycarbonyl-6-methyl-7-phenylmethyl-7H-pyrrolo[2,3-d]pyrimidine], the pest or weed control at 1000 g/ha in assay [1] is 40%; in assay [2], 80%; in [3], 10%; in assay [4] it was 0%; in assay [5] it was 0%; in assay [6], 40%. Moreover, the pest or weed control at 1000 g/ha in assay [7] worked out at 0%; in assay [8], 0%; in [9], 20%; in assay [10], 0%; in assay [11] it was 0%; in assay [12] it was 10%.

These data come from patent US20120202690A1, “HERBICIDAL COMPOUNDS” (SYNGENTA LIMITED, priority 2009, published 2012).
